From ChEMBL document CHEMBL4304811, “Development of a Water-Soluble Indolylmaleimide Derivative IM-93 Showing Dual Inhibition of Ferroptosis and NETosis” (ACS Med Chem Lett, 2019)

Tests used:
[1] = system: Leucine-rich repeat serine/threonine-protein kinase 2 (Homo sapiens), Q5S007 [G2019S]; assay: Binding affinity to human partial length LRRK2 G2019S mutant (H970 to E2527 residues) expressed in mammalian expression system assessed as residual binding level at 10 uM by Kinomescan method relative to control
[2] = target: Serine/threonine-protein kinase D2 (Homo sapiens) (UniProt Q9BZL6); assay: Binding affinity to wild-type human partial length PRKD2 (A519 to E838 residues) expressed in bacterial expression system assessed as residual binding level at 10 uM by Kinomescan method relative to control
[3] = system: Proto-oncogene tyrosine-protein kinase receptor Ret (Homo sapiens), P07949 [M918T]; assay: Binding affinity to human partial length RET M918T mutant (E713 to D1014 residues) expressed in bacterial expression system assessed as residual binding level at 10 uM by Kinomescan method relative to control
[4] = system: Tyrosine-protein kinase ABL1 (Homo sapiens), P00519 [Y253F]; assay: Binding affinity to human phosphorylated ABL1 Y253F mutant (S229 to K512 residues) expressed in mammalian expression system assessed as residual binding level at 10 uM by Kinomescan method relative to control
[5] = target: Calcium-dependent protein kinase 1 (Plasmodium falciparum) (UniProt P62344); assay: Binding affinity to wild-type Plasmodium falciparum full length CDPK1 (M1 to S524 residues) expressed in mammalian expression system assessed as residual binding level at 10 uM by Kinomescan method relative to control
[6] = target: Dual specificity protein kinase CLK1 (Homo sapiens) (UniProt P49759); assay: Binding affinity to wild-type human full length CLK1 (M1 to I484 residues) expressed in bacterial expression system assessed as residual binding level at 10 uM by Kinomescan method relative to control
[7] = target: Receptor-interacting serine/threonine-protein kinase 1 (Homo sapiens) (UniProt Q13546); assay: Binding affinity to wild-type human partial length RIPK1 (M1 to K305 residues) expressed in bacterial expression system assessed as residual binding level at 10 uM by Kinomescan method relative to control
[8] = target: Vascular endothelial growth factor receptor 2 (Homo sapiens) (UniProt P35968); assay: Binding affinity to wild-type human partial length VEGFR2 (R787 to P1253 residues) expressed in mammalian expression system assessed as residual binding level at 10 uM by Kinomescan method relative to control
[9] = target: Serine/threonine-protein kinase 10 (Homo sapiens) (UniProt O94804); assay: Binding affinity to wild-type human partial length LOK (E16 to V314 residues) expressed in bacterial expression system assessed as residual binding level at 10 uM by Kinomescan method relative to control
[10] = system: Tyrosine-protein kinase ABL1 (Homo sapiens), P00519 [F317I]; assay: Binding affinity to human non-phosphorylated ABL1 F317I mutant (S229 to K512 residues) expressed in mammalian expression system assessed as residual binding level at 10 uM by Kinomescan method relative to control
[11] = target: Phosphatidylinositol 4-kinase beta (Homo sapiens) (UniProt Q9UBF8); assay: Binding affinity to wild-type human full length PIK4CB (M1 to M828 residues) expressed in mammalian expression system assessed as residual binding level at 10 uM by Kinomescan method relative to control
Sequence of Phosphatidylinositol 4-kinase beta (Homo sapiens) (Q9UBF8 2-816 limits assumed): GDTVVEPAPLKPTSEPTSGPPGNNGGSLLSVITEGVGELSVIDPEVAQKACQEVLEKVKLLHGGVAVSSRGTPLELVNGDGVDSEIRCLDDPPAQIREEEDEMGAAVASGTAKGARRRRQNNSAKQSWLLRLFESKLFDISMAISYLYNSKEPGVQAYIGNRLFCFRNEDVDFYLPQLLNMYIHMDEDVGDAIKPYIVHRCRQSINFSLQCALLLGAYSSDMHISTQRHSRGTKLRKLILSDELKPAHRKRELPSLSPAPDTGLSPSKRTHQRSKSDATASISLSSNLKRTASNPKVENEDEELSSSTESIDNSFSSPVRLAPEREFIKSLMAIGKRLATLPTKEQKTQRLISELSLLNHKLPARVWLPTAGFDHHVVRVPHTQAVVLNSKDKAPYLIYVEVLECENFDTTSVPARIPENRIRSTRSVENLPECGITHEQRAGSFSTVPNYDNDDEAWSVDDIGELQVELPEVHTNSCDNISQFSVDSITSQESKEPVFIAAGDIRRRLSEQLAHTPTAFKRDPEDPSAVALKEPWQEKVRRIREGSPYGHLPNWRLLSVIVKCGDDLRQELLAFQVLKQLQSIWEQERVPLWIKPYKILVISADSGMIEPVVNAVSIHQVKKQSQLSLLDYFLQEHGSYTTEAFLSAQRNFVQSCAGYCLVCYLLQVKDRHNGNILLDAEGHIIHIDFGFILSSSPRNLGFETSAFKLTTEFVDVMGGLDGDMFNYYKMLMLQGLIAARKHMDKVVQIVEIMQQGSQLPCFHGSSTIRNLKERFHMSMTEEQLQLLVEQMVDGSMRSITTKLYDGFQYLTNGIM

[12] = target: Serine/threonine-protein kinase 25 (Homo sapiens) (UniProt O00506); assay: Binding affinity to wild-type human partial length YSK1 (V14 to H295 residues) expressed in bacterial expression system assessed as residual binding level at 10 uM by Kinomescan method relative to control
[13] = target: Rho-associated protein kinase 2 (Homo sapiens) (UniProt O75116); assay: Binding affinity to wild-type human partial length ROCK2 (M1 to T431 residues) expressed in mammalian expression system assessed as residual binding level at 10 uM by Kinomescan method relative to control
[14] = system: Phosphatidylinositol 4,5-bisphosphate 3-kinase catalytic subunit alpha isoform (Homo sapiens), P42336 [H1047L]; assay: Binding affinity to human partial length PIK3CA H1047L mutant (R108 to N1068 residues) expressed in mammalian expression system assessed as residual binding level at 10 uM by Kinomescan method relative to control
Sequence of Phosphatidylinositol 4,5-bisphosphate 3-kinase catalytic subunit alpha isoform (Homo sapiens), P42336 [H1047L] (P42336 whole entry H1047L, the tested form may be a part, canonical isoform): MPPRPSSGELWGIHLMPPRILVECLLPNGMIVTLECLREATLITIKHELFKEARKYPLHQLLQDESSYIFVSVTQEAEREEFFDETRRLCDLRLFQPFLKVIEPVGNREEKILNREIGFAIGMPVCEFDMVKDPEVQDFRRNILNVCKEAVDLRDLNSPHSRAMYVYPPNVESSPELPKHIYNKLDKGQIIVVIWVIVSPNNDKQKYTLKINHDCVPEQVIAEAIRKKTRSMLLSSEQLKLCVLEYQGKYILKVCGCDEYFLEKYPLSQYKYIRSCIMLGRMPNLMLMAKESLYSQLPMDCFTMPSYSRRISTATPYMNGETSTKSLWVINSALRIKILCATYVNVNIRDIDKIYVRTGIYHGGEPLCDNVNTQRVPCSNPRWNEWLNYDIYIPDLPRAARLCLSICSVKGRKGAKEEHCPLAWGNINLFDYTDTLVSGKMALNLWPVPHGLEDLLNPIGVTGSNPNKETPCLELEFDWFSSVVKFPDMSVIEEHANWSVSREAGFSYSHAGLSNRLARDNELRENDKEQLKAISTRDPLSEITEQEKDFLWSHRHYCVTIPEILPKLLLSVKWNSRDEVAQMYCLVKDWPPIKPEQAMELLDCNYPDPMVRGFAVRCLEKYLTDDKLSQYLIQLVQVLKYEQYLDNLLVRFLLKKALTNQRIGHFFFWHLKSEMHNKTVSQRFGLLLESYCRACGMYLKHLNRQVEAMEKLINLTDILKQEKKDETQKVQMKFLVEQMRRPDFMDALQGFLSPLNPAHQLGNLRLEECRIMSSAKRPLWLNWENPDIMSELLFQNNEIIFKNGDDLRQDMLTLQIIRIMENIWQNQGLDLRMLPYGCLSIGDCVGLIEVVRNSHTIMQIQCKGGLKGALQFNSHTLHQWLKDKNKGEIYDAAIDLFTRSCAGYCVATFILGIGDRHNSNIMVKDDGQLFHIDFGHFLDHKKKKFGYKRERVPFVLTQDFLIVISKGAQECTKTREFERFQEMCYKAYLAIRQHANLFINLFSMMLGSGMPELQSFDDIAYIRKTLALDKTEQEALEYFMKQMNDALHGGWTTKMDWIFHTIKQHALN

[15] = target: LIM domain kinase 2 (Homo sapiens) (UniProt P53671); assay: Binding affinity to wild-type human full length LIMK2 (M1 to P638 residues) expressed in bacterial expression system assessed as residual binding level at 10 uM by Kinomescan method relative to control
[16] = target: MAP kinase-activated protein kinase 2 (Homo sapiens) (UniProt P49137); assay: Binding affinity to wild-type human partial length MAPKAPK2 (V48 to D345 residues) expressed in bacterial expression system assessed as residual binding level at 10 uM by Kinomescan method relative to control
Sequence of MAP kinase-activated protein kinase 2 (Homo sapiens) (P49137 whole entry, looked up, the tested form may be a part): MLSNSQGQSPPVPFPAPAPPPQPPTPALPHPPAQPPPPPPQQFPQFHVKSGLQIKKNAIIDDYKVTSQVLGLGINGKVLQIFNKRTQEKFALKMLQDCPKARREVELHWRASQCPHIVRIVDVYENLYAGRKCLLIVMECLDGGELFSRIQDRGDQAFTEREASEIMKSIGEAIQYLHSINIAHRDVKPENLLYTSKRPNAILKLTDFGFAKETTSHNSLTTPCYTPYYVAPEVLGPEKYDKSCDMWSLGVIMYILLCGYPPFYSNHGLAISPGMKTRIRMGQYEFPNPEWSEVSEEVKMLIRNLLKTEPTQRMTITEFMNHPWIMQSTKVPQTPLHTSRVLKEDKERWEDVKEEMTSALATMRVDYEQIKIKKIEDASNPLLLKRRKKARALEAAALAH

[17] = target: Dual specificity protein kinase CLK3 (Homo sapiens) (UniProt P49761); assay: Binding affinity to wild-type human full length CLK3 (M1 to R490 residues) expressed in bacterial expression system assessed as residual binding level at 10 uM by Kinomescan method relative to control
[18] = target: Serine/threonine-protein kinase Chk1 (Homo sapiens) (UniProt O14757); assay: Binding affinity to wild-type human partial length CHEK1 (M1 to G289 residues) expressed in bacterial expression system assessed as residual binding level at 10 uM by Kinomescan method relative to control
[19] = target: Dual specificity tyrosine-phosphorylation-regulated kinase 2 (Homo sapiens) (UniProt Q92630); assay: Binding affinity to wild-type human full length DYRK2 (M1 to S528 residues) expressed in mammalian expression system assessed as residual binding level at 10 uM by Kinomescan method relative to control
[20] = target: Serine/threonine-protein kinase 38 (Homo sapiens) (UniProt Q15208); assay: Binding affinity to wild-type human partial length NDR1 (N33 to E449 residues) expressed in mammalian expression system assessed as residual binding level at 10 uM by Kinomescan method relative to control
[21] = target: Insulin receptor (Homo sapiens) (UniProt P06213); assay: Binding affinity to wild-type human partial length INSR (P997 to E1318 residues) expressed in mammalian expression system assessed as residual binding level at 10 uM by Kinomescan method relative to control
Sequence of Insulin receptor (Homo sapiens) (P06213 28-758 limits assumed): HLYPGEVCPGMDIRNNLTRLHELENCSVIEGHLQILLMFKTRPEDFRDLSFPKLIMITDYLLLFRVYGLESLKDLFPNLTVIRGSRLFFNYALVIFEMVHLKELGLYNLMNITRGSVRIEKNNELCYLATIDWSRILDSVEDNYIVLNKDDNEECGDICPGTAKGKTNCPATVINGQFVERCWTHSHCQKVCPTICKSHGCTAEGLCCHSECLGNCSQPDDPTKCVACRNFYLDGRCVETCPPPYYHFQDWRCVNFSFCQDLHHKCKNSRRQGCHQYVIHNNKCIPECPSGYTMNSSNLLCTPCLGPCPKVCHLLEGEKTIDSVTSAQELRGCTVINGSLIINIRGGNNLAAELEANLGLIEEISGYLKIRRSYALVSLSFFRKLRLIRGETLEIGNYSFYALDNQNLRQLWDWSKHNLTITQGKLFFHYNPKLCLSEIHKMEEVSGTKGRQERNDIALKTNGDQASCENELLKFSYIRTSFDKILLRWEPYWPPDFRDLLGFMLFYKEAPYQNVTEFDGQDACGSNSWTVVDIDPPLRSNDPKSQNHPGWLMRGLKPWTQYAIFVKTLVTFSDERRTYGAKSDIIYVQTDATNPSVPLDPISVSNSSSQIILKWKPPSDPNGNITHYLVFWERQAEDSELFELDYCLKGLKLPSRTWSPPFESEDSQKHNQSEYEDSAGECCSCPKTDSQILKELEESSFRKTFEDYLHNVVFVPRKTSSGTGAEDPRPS
Sequence of Insulin receptor (Homo sapiens) (P06213 763-1382 limits assumed): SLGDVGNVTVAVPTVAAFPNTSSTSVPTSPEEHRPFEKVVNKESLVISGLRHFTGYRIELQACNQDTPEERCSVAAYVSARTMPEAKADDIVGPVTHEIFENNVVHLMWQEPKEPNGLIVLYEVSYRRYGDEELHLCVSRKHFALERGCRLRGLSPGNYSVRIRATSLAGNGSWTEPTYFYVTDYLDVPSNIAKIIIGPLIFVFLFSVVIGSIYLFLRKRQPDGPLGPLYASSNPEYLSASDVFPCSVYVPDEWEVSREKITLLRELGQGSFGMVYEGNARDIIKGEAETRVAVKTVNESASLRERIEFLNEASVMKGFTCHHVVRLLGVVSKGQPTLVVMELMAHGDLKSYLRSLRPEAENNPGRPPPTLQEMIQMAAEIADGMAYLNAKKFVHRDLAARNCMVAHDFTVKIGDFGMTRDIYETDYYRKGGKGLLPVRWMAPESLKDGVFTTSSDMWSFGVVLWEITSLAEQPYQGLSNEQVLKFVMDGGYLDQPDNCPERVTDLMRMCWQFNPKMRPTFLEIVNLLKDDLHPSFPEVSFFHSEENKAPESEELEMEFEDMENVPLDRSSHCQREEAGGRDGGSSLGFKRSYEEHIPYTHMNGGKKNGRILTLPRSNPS

[22] = target: Serine/threonine-protein kinase 32A (Homo sapiens) (UniProt Q8WU08); assay: Binding affinity to wild-type human full length YANK1 (M1 to L396 residues) expressed in mammalian expression system assessed as residual binding level at 10 uM by Kinomescan method relative to control
Sequence of Serine/threonine-protein kinase 32A (Homo sapiens) (Q8WU08 whole entry, the tested form may be a part, canonical isoform): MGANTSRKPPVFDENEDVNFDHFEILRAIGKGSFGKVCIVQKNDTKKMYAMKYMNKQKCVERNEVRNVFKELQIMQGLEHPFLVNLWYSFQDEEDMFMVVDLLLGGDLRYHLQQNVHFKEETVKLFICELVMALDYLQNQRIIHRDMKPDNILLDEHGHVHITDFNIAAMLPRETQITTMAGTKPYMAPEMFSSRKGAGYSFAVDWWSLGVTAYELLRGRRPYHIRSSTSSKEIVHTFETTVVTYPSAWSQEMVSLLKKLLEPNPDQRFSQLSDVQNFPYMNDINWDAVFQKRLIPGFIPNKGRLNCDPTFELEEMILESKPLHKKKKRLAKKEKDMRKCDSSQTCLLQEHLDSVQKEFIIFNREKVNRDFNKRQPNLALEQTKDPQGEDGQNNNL

[23] = target: Phosphatidylinositol 4,5-bisphosphate 3-kinase catalytic subunit beta isoform (Homo sapiens) (UniProt P42338); assay: Binding affinity to wild-type human partial length PIK3CB (P118 to S1070 residues) expressed in mammalian expression system assessed as residual binding level at 10 uM by Kinomescan method relative to control
[24] = target: Activated CDC42 kinase 1 (Homo sapiens) (UniProt Q07912); assay: Binding affinity to wild-type human partial length TNK2 (S159 to D474 residues) expressed in bacterial expression system assessed as residual binding level at 10 uM by Kinomescan method relative to control
Sequence of Activated CDC42 kinase 1 (Homo sapiens) (Q07912 whole entry, looked up, the tested form may be a part): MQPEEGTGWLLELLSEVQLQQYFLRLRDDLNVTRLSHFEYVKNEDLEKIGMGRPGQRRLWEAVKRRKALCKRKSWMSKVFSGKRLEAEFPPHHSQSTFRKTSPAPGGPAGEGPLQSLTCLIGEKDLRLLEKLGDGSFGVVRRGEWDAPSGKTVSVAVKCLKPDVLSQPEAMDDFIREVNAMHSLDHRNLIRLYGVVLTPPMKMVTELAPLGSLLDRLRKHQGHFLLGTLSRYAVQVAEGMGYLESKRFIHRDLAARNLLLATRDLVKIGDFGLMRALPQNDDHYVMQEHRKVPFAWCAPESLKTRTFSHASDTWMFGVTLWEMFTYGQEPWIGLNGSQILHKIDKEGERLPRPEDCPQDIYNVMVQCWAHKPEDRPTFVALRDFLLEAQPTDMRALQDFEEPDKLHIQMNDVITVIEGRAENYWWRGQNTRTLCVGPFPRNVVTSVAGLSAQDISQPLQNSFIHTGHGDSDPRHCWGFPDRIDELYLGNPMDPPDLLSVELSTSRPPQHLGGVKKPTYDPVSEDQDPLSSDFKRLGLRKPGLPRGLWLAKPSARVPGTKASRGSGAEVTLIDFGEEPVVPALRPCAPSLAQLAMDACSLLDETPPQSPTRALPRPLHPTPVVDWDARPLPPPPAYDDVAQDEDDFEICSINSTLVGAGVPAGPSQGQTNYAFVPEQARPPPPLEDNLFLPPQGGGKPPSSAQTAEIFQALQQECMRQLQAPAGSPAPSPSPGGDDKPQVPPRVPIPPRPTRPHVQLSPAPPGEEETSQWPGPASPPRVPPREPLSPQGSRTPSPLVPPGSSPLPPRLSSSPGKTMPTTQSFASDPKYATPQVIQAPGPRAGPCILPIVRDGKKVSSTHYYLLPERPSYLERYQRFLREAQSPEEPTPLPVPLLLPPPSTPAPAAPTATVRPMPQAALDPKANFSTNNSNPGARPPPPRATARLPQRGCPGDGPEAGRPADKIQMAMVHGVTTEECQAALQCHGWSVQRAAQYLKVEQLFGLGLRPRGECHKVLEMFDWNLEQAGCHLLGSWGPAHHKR

Work on `CC(C)N1C(=O)C(NCCCN(C)C)=C(c2cn(C)c3ccccc23)C1=O.Cl` yielded an Activity [1] of 91%, an Activity [2] of 93% and an Activity [3] of 86%. It also gave an Activity [4] of 98%, an Activity [5] of 81% and an Activity [6] of 98%. The Activity [7] was 96%, the Activity [8] was 66% and the Activity [9] was 88%. The Activity [10] was 88%, the Activity [11] was 85% and the Activity [12] was 94%. The Activity [13] was 100%, the Activity [14] was 78% and the Activity [15] was 93%. It also gave an Activity [16] of 94%, an Activity [17] of 92% and an Activity [18] of 100%. It also gave an Activity [19] of 87%, an Activity [20] of 93% and an Activity [21] of 100%. For the same molecule, the Activity [22] was 67%, the Activity [23] was 89% and the Activity [24] was 100%.
